One data set has as its target T1, KDM5C (Homo sapiens, UniProt P41229).
T1 construct: host or cells: Sf9 cells
The data set is described as follows: Biochemical KDM inhibition assay (LANCE), KDM5C. The conditions noted are these: read-out: Biochemical IC50 KDM 5C. As to the method: (§1) Representative compounds were characterized for their inhibition of KDM5 using biotinylated histone substrates. Inhibition was measured in vitro (CEREP Poitier, Le Bois l'Evêque, France) following experimental conditions described in Table 2. Briefly, the test compound, reference compound or water (control) was mixed with about 2-20 ng of recombinant, Human enzymes expressed in Sf9 cells in a buffer containing 45 mM Hepes/Tris (pH 7), 5 μM FAS, 100 μM ascorbic acid, 10 μM 2-oxoglutarate, 0.01% Tween 20 and 0.01% BSA. Thereafter, the reaction was initiated by adding the biotin-labeled substrate, and the mixture was incubated for 10-30 min at room temperature. For basal control measurements, the enzyme was omitted from the reaction mixture. Following incubation the reaction was stopped by adding 1 mM EDTA. After 5 min, the anti-methyl histone antibody labeled with europium chelate and the Ulight streptavidine (Perkin Elmer Waltham, Mass.) were added. After 60 min more, the fluorescence transfer was measured at λex=320 nm and λem=620 and λem=665 nm using a microplate reader (Envision, Perkin Elmer) (LANCE). The enzyme activity was determined by dividing the signal measured at λem=665 nm by that measured at 620 nm (ratio).

A further data set deals with T2, KDM4C (Homo sapiens, UniProt Q9H3R0).
T2 sequence (Q9H3R0 1-1056): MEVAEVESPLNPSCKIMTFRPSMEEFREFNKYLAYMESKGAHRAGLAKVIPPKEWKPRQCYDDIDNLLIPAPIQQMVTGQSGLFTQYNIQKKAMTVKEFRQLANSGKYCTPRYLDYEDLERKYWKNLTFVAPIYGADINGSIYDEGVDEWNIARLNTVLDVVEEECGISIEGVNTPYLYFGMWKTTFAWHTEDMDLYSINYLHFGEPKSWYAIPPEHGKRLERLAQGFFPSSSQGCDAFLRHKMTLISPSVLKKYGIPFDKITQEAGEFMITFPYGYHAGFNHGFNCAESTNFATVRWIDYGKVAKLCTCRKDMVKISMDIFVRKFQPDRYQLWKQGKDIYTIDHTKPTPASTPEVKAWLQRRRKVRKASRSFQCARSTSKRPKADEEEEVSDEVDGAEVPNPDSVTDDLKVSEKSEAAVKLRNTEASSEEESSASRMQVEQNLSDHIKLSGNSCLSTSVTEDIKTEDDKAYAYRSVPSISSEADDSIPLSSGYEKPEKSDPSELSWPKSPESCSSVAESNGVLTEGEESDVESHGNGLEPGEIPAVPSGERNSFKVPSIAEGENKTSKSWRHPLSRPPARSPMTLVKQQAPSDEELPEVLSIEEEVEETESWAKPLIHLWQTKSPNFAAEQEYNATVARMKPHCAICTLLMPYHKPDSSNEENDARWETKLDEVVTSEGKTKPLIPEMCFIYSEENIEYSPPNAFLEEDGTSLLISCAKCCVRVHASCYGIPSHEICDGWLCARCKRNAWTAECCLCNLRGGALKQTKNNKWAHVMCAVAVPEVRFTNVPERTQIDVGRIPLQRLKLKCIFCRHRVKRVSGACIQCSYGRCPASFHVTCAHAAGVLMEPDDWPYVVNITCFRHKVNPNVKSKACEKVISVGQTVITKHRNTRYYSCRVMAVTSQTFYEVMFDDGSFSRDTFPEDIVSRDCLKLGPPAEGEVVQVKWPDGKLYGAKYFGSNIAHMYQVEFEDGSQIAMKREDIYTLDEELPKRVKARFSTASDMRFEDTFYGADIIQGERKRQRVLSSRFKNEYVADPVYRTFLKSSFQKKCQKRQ
The data set is described as follows: Biochemical KDM inhibition assay (LANCE), KDM4C. The conditions noted are these: read-out: Biochemical IC50 KDM 4C.

The next data set concerns the target KDM5A (Homo sapiens, UniProt P29375). Put plainly: Biochemical KDM inhibition assay (LANCE), KDM5A. The note with it: read-out: Biochemical IC50 KDM 5A. Here is the method:
as §1

Data set [1] is described as follows: Alamar Blue cell viability assay. It counts as cell-based. The conditions noted are these: human. Here is the method:
Alamar Blue cell viability reagent (Cat#DAL1100 Life Technologies, Chicago, Ill.) was diluted 1 to 10 in Maintenance Media and added to the cells. Cells were incubated for 4 h at 37° C. and the fluorescence signal, which is proportional to the number of live cells, was read using a fluorimeter with excitation/emission spectra set at 560/590 nm, respectively. Data were converted into percentages of the untreated control and non-linear regression was performed to calculate CC50 values.
PHH were plated in collagen coated tissue culture plates in Plating Media and after 4-hour incubation at 37° C., cells were switched to Maintenance Media. On the next day, the cells were infected with 500 genome equivalents per cell of Genotype-A clinical isolate 21P (ProteoGenex, Culver City, Calif.) in 100 μl Maintenance Media supplemented with 4% PEG 8000 (Cat#V3011 Promega, Madison, Wis.). After an overnight incubation the inoculum was removed and the cells were washed three times with William's Media E and maintained in Maintenance Media. […] Following the transfection, the cells were incubated at 37° C. in a humidified incubator and media was changed every 3-4 days. The assay was terminated on day 14 post infection and cell viability was assessed by Alamar Blue. The collected medium was used for determination of HBsAg and HBeAg levels by MSD ELISA while cells were processed for determination of HBV RNA using qPCR.

The target in the next data set is T3, KDM4E (Homo sapiens, UniProt B2RXH2).
T3 construct: host or cells: Sf9 cells
T3 sequence (B2RXH2 1-506): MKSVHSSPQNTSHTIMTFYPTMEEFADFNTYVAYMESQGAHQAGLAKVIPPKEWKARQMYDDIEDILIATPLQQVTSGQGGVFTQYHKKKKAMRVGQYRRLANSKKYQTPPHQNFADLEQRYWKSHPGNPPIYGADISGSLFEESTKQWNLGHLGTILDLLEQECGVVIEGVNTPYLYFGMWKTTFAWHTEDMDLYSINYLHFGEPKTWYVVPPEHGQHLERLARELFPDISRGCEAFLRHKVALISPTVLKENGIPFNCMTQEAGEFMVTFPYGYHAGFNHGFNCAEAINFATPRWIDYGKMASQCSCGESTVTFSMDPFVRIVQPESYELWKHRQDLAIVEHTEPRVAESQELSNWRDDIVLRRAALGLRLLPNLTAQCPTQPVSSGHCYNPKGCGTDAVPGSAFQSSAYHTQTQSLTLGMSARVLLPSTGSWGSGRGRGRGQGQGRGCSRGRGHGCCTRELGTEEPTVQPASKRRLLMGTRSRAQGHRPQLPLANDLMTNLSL
Put plainly: Biochemical KDM inhibition assay (LANCE), KDM4E. The note with it: read-out: Biochemical IC50 KDM 4E.

T1 sequence (P41229 whole entry): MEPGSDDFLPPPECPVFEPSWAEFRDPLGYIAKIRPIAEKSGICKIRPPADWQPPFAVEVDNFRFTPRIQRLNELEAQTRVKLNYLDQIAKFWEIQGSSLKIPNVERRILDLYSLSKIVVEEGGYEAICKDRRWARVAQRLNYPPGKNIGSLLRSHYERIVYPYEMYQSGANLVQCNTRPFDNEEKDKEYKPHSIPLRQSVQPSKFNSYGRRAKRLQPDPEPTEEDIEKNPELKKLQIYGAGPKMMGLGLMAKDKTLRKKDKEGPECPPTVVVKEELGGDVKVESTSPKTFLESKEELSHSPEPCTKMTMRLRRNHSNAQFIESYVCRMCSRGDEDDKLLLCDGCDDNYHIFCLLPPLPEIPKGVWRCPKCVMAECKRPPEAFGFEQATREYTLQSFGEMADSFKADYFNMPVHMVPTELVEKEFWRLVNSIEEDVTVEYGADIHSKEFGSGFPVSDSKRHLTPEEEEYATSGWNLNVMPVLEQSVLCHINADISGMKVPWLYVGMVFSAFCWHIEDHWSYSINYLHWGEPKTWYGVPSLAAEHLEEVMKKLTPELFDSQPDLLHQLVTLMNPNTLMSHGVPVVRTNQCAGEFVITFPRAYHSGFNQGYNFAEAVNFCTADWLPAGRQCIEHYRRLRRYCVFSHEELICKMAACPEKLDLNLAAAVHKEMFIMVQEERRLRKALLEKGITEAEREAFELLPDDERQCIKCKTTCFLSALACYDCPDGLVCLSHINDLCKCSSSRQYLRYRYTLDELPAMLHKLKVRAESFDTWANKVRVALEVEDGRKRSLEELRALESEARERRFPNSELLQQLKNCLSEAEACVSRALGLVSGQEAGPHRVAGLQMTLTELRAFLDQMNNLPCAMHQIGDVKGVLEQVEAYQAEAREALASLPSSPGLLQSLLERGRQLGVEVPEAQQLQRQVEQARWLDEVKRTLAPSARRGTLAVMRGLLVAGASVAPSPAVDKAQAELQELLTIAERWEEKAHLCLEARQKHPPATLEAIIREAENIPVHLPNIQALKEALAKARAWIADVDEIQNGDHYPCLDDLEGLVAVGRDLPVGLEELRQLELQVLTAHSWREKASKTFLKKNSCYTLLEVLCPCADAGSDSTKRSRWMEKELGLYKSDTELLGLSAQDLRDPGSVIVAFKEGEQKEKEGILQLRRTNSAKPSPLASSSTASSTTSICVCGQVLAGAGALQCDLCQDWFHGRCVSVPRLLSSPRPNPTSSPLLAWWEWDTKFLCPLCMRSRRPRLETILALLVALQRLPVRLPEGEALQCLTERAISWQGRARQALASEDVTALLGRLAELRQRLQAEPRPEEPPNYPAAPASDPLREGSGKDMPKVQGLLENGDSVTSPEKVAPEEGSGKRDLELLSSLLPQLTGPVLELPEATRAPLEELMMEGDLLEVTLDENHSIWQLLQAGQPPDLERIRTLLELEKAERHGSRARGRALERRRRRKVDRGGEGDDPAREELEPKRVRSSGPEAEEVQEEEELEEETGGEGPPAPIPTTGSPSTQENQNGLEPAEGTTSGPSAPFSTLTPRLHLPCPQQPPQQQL
Sequence of KDM5A (P29375 whole entry): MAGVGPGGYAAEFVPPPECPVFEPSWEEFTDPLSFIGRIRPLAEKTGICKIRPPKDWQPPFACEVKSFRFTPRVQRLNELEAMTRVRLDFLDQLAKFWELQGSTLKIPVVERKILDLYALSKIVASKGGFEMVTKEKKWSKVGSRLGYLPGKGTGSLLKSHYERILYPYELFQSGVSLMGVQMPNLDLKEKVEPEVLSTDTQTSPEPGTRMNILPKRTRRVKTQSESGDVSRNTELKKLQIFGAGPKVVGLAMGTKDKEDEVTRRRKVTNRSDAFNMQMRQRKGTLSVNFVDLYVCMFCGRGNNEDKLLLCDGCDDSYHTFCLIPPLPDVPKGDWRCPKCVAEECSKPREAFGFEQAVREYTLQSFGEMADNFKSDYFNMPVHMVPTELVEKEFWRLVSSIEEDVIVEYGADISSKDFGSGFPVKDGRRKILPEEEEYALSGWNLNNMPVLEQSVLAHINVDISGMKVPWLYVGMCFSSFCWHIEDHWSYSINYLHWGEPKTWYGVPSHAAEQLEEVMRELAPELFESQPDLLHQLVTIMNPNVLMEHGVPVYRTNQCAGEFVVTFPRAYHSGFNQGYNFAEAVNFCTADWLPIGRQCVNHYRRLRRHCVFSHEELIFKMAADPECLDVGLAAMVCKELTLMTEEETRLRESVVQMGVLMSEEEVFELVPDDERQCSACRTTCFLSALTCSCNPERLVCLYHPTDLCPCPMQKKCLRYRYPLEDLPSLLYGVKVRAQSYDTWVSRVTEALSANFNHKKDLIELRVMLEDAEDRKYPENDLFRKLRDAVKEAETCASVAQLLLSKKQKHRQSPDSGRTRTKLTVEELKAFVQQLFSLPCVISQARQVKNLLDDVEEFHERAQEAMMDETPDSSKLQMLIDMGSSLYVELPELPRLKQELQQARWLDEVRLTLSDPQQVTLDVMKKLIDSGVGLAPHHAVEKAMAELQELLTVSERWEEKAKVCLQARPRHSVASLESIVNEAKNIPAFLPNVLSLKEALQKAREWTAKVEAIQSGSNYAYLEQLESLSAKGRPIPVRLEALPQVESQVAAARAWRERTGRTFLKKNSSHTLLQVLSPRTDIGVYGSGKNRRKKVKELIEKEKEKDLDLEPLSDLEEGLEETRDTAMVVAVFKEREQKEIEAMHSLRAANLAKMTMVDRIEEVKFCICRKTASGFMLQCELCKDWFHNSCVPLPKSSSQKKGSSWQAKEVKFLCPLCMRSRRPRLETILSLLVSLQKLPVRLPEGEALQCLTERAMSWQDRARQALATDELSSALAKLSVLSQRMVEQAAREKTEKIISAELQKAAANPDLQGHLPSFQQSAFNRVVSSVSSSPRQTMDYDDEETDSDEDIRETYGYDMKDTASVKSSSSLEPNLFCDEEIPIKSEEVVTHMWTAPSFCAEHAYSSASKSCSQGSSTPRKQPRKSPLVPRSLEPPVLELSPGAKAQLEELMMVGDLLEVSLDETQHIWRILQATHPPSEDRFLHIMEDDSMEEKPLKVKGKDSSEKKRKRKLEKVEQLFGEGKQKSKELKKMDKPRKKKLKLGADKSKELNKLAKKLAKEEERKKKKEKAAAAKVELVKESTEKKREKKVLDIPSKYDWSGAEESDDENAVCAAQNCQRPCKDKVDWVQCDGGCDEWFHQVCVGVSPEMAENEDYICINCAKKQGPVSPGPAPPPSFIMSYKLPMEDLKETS

Regarding `CCN(CCN(C)C)C(=O)CNCc1cc(C(=O)O)ccn1` [Example 9], the IC50 came to 26 nM at KDM5C, 57 nM at KDM4C, 24 nM on KDM5A and 35 nM at KDM4E. In data set [1], this compound returned a CC50 of at least 50000 nM.
As for `CCN(CC)CCCCNCc1cc(C(=O)O)ccn1` [Example 18], the IC50 at KDM5C turned out to be 21 nM; on KDM4C it was 350 nM; at KDM5A it was 11 nM; at KDM4E, 1200 nM.
With `Nc1c(C(=O)O)ccnc1C(=O)O` [Example 7, reference compound], the IC50 is 540 nM on KDM5C, 110 nM at KDM4C, 1200 nM at KDM5A and 64 nM at KDM4E. Further, the CC50 in data set [1] was at least 100000 nM.
In turn, `CCOC(=O)c1ccnc(CNCC(=O)N(CC)CCN(C)C)c1` [Example 8] showed a CC50 in data set [1] of 28200 nM.
In the case of `Cc1cc(Cl)ccc1COc1ccnn1-c1cc(C(=O)O)ccn1` [Example 11], the IC50 on KDM5C was 270 nM; at KDM4C, 110 nM; at KDM5A it was 28 nM; on KDM4E, 110 nM. In data set [1], this compound returned a CC50 of at least 50000 nM.
For `O=C(O)c1ccncc1Nc1nn(CCN2CCC(F)(F)CC2)c2ccc(F)cc12` [Example 13], the IC50 on KDM5C was found to be 86 nM; at KDM4C, 260 nM; at KDM5A, 21 nM; on KDM4E, 670 nM. In addition, the CC50 in data set [1] was at least 50000 nM.
As to `N#CNC(=O)c1ccncc1Nc1nn(CCN2CCC(F)(F)CC2)c2ccc(F)cc12` [Example 14], the IC50 came out at 240 nM at KDM5C, 3100 nM on KDM4C, 29 nM at KDM5A and 2300 nM on KDM4E. Besides, the CC50 in data set [1] is at least 50000 nM.

The record behind these values is patent US20160303095A1, “METHODS OF TREATING HEPATITIS B VIRUS” (Gilead Sciences, Inc., priority 2015, published 2016).
